Experimental data published in PMC12246422 (Nature Communications, 2025).

Key:
[1] = system: A549-ACE2 cells; format: cell-based
[2] = system: A549-ACE2 cells; format: cell-based; details: 5 μM, 24 hours
[3] = system: SARS-CoV-2; assay: Time-of-addition experiment in Calu-3 cells, plaque assay; format: cell-based
[4] = system: SARS-CoV-2 subgenomic replicon; format: cell-based; details: Vero E6-TMPRSS2 cells, 24 h
[5] = cited from earlier work

CCN(CC)CCCC(C)Nc1ccnc2cc(Cl)ccc12 (centres unmarked) [chloroquine]
autolysosome number and autolysosome-to-autophagosome ratio relative to DMSO [1]: moderately reduced

Cc1cccc(/C=N/Nc2cc(N3CCOCC3)nc(OCCc3ccccn3)n2)c1 [Apilimod]
morphology of A549-ACE2 cells expressing 2xFYVE PI3P marker [2]: cytosolic vacuolation and swelling of membrane structures | time-of-addition profile [3]: suppressed SARS-CoV-2 replication when added during the first two hpi, but not at later time points | viral RNA replication, subgenomic replicon [4]: dose-dependently increased viral RNA replication | pharmacokinetic profile [5]: suboptimal pharmacokinetic profile
